This is an account of results in patent US11980594B2, “Composition and method for treating a drug-resistant cancer” (NOVELWISE PHARMACEUTICAL CORPORATION, priority 2021, dated 2024).

Series [1] concerns GBM-R cells (U87MG-R and A172-R). As to the kind of experiment: GBM-R cell viability time course (FIG. 2F). In kind it is cell-based, human. To be noted: BMX 10 μM alone, FIG. 2F (24, 48, and 72 hrs). The procedure:
(A) Chemical structure of BMX. (B) Cell viability of GBM and GBM-R cell lines after treatment with 0.5, 10, 15, 30, or 50 μM BMX. (C) Cell viability of GBM and GBM-R cell lines after treatment with 0.25, 50, 100, 200, 400, or 800 μM TMZ. (D) GBM and GBM-R cell viability after treatment with 10 μM BMX with or without TMZ at various concentrations (0.25, 50, 100, 200, 400, or 800 μM) for 24 hrs. (E) GBM and GBM-R cell viability after treatment with 50 μM TMZ with or without BMX at various concentrations (0.5, 10, 15, 30, or 50 μM) for 24 hrs. (F) GBM-R cell viability after treatment with 50 μM TMZ with or without 10 μM BMX for 24, 48, and 72 hrs. (G) Colony formation assay of GBM and GBM-R cell lines with BMX (0, 5, or 10 μM) with or without TMZ (50 μM) for 14 days. Data are represented as means±SEM from three experiments. *p<0.05 vs. control (A172 and U87MG); #p<0.05 vs. (A172-R and U87MG-R).
We plated 3000 GBM cells per well in 96-well plates and allowed them to adhere overnight. To validate cell line responsiveness to BMX and TMZ monotherapy, the cells were treated with different doses of BMX or TMZ for 24, 48, and 72 hrs. […] Following treatment, the absorption value was measured using a CCK8 kit (Targetmol, Shanghai, China) at the indicated time points. […]

Series [2] has as its system A172-R cells. As to the kind of experiment: Flow cytometric analysis of the DNA cell cycle, A172-R. The format is cell-based, human. Conditions: 10 μM BMX alone, 48 hrs. How it is done: For the DNA cell cycle, following treatment with different doses of BMX (0-10 μM) in the presence or absence of TMZ (50 μM) for 48 hrs, the cells were harvested through trypsinization, washed twice with phosphate-buffered saline, and fixed in methanol. The cells were then washed again, subjected to RNase A at a final concentration of 0.05 mg/mL (Sigma-Aldrich; Merck Millipore, Darmstadt, Germany), and incubated with 10 μg/mL propidium iodide (PI; Sigma-Aldrich; Merck Millipore) at 4° C. for 15 min in the dark. Cell cycle analysis was conducted using a fluorescence-activated cell sorting (FACS) flow cytometer (Attune NxT flow cytometer, Thermo Fisher Scientific).

Series [3] relates to HT29 cells. As to the kind of experiment: Annexin V/PI flow cytometric analysis of apoptosis, HT29. To be noted: BMX, 48 hrs. In kind it is cell-based, human. The procedure:
(§1) Apoptosis induction in different doses of BMX (0-10 μM) in the presence or absence of TMZ (50 μM) was assayed by the detection of membrane externalization of phosphatidylserine with the with the CF®488A Annexin V and PI Apoptosis Kit (Fremont, Calif., USA) following the manufacturer's instructions. All samples were then immediately analyzed by flow cytometry.

Series [4] deals with HCT116 cells. The experiment in a line: Annexin V/PI flow cytometric analysis of apoptosis, HCT116. Conditions: BMX, 48 hrs. In kind it is cell-based, human. How it is done:
as §1
A general note: Flow cytometry measures light scatter and fluorescence of single cells or particles in a stream.

For series [5], the system named is RKO cells. The experiment in a line: Annexin V/PI flow cytometric analysis of apoptosis, RKO. In kind it is cell-based, human. Conditions: BMX, 48 hrs. How it is done: as §1
Series [6] deals with HDAC8. As to the kind of experiment: HDAC8 mRNA (qRT-PCR) and protein (Western blot) expression in GBM and GBM-R cell lines. Conditions: four cell lines (U87MG, U87MG-R, A172, A172-R); BMX 0-10 μM; FIGS. 9A and 9B. In kind it is cell-based, human. The procedure:
The ABI Prism® 7700 Sequence Detection System (Applied Biosystems, Foster City, Calif., USA) was used for quantitative analysis of mRNA expression. The cells (2×10^5) were seeded in 6-well plates, and total RNA was extracted using Tissue Total RNA Mini Kit (Geneaid, Taipei, Taiwan). A 10-ng sample of total RNA was transcribed into cDNA by using a High-Capacity cDNA Reverse Transcription Kit (Applied Biosystems). Gene expression was quantified using Fast SYBR Green Master Mix (Applied Biosystems) following the procedures provided by the manufacturer, with 18s as the inner reference. All procedures were performed according to the manufacturer's protocols. The thermocycling conditions were as follows: 50° C. for 2 min, 95° C. for 10 min, and 40 cycles of 95° C. for 15 s and 60° C. for […]. Each sample was analyzed in triplicate. The threshold cycle (Ct) values were calculated using the StepOnePlus (Applied Biosystems) software. The relative expression of each mRNA was calculated using the 2-(ΔCt) method. […]
The cells were collected and lysed in RIPA lysis buffer (EMD Millipore Billerica, Mass., USA, 10×RIPA buffer) containing a protease inhibitor. Protein concentration was determined using a protein assay kit (Bio-Rad Laboratories, Hercules, Calif., USA). […] After washing thoroughly with TBS-T, the HRP signals were detected with a chemical HRP substrate. […]

In series [7] the test system is β-catenin. As to the kind of experiment: Western blot of β-catenin in GBM-R cells. In kind it is cell-based, human. Conditions: U87R and A172R cells; 10 μM BMX with or without 50 μM TMZ; 48 hrs; FIG. 3A. The procedure:
(§2) The cells were collected and lysed in RIPA lysis buffer (EMD Millipore Billerica, Mass., USA, 10×RIPA buffer) containing a protease inhibitor. Protein concentration was determined using a protein assay kit (Bio-Rad Laboratories, Hercules, Calif., USA). The SDS loading buffer was mixed with the protein samples. Proteins (20 μg/lane) were separated using 8%-12% SDS-PAGE and transferred to a PVDF membrane, which was blocked with 5% bovine serum albumin at room temperature for 1 hr in tris-buffered saline (TBS)-Tween 20 (0.5%; TBS-T), incubated with primary antibodies overnight at […], and then incubated with horseradish peroxidase (HRP)-conjugated secondary antibodies at room temperature for 1 hr. After washing thoroughly with TBS-T, the HRP signals were detected with a chemical HRP substrate. Signal of each target protein was visualized by incubation with an enhanced chemiluminescent reagent and exposure to X-ray film.
(In general: A western blot detects proteins with antibodies after separation by electrophoresis.)

In series [8] the test system is c-Myc and cyclin D1. As to the kind of experiment: Western blot of c-Myc and cyclin D1 in GBM-R cells. In kind it is cell-based, human. To be noted: 5 or 10 μM BMX with or without 50 μM TMZ, 48 hrs, FIG. 3B. The procedure:
as §2

For series [9] the following is noted: statement from literature [22]; cited from earlier work.
For series [10], the system named is RKO cells. The experiment in a line: Clonogenic (colony formation) assay, RKO. In kind it is cell-based. To be noted: Homo sapiens, 336 h, 14 days, read-out: IC50 values of TMZ, clonogenic assay. How it is done: For the anchorage-dependent growth assay, 1000 cells were resuspended in the medium and seeded in 6-well plates. […] After 14 days, the media were removed and the cells were washed and fixed with 4% paraformaldehyde for 30 min, and stained with 0.1% crystal violet for 20 min at 25° C. The intensity of crystal violet was quantified by the absorbance of 570 nm after dissolving the stained cells with dimethyl sulfoxide (DMSO). The results are expressed as the average colony±SE from three independent experiments.

Each structure is given as a SMILES string. Several values for one entry are separate records, joined by “and”; a condition that tells them apart may be missing. Equal values may be shown once. Where only a bound is given, the exact number is not on record here.

Broadly, the IC50 is the point on the concentration scale where inhibition reaches its midpoint.

In the case of `COc1ccc(COc2c(/C=C/C(=O)NO)ccc(OC)c2CC=C(C)C)cc1` [BMX, (E)-2-(4-Methoxybenzyloxy)-3-prenyl-4-methoxy-N-hydroxycinamide], the “cell viability (cytotoxic effect, fold)” value in [1] is 0.88 × and 0.77 × and 0.63 ×. For the same compound, the “cells arrested in G0/G1 phase” value in series [2] is given as 70.34%. The early apoptotic cells entry in series [3] is reported as “up to 23.78%”; in [4] it was at most 49.34%; in series [5], at most 59.18%. The “HDAC8 mRNA and protein expression” value in [6] is “inhibition of HDAC8 mRNA and protein expression”. Further, the “protein levels of β-catenin” value in series [7] is recorded as “only slightly reduced these levels”. Besides, the “levels of proliferative markers c-Myc and cyclin D1” value in [8] is listed as “could decrease their levels”. The toxicity result in [9] is listed as “lowest toxicity”.
Take `Cn1nnc2c(C(N)=O)ncn2c1=O` [TMZ, Temozolomide, reference compound]: the half-maximal inhibitory concentration (IC50) in series [10] worked out at 244 ± 29.4 µM.
